Assay [1] concerns HCT116 colon cancer cells. Nature of the assay: HCT116 cell viability and proliferation assay (MTS). It counts as cell-based. The following applies: Homo sapiens, HCT-116, 72 hours, mean of 3 independent experiments, read-out: HCT116 GI50 D3. On the procedure: HCT116 colon cancer cells were obtained from ATCC (American Type Culture Collection), and maintained in Mc Coy's 5A medium containing 10% FBS, 3 mM glutamine and 1% penicillin/streptomycin. Cells were incubated at 37° C. in a humidified atmosphere containing 5% CO2.
Cell viability was assayed using the MTS technique in 96-well culture plates (CellTiter 96® Aqueous Non-Radioactive Cell Proliferation Assay, Promega) according to the manufacturer's instructions. MTS (3-(4,5-dimethylthiazol-2-yl)-5-(3-carboxymethoxyphenyl)-2-(4-sulfophenyl)-2H-tetrazolium) is a MTT-derived tetrazolium that is reduced in metabolically active cells into a soluble, cell-permeant formazan. The amount of formazan, detected by its absorbance at 492 nm is proportional to the number of living, metabolically active cells.
10^3 HCT116 cells were seeded per well. 24 hours later, the medium was changed and the cells treated in triplicate with the following concentrations of each compound: 10 μM-3.33 μM-1.11 μM-370 nM-123 nM-41 nM-14 nM and 5 nM. The compounds were diluted in 100% DMSO, whose final concentration on cells was kept at 0.5%.
Cells were incubated with the compounds for 72 hours, and their viability then assayed by the addition of MTS for 2 hours. Absorbance at 492 nm was measured directly from the 96-well culture plates. GI50 (Growth Inhibition 50) concentrations for each compound were calculated using a sigmoidal variable slope fit (Prism 4.0, Graphpad Softwares). Values represent mean of 3 independent experiments.

Assay [2] deals with T1, USP7 (Homo sapiens, UniProt Q93009).
T1 construct: His tag (from vector pFastBac-HT) (N); made in house; host or cells: insect cells (Sf9 or High Five), baculovirus
Nature of the assay: USP7 activity assay (Ub-AMC). Format: biochemical. The settings on record: 400 nM Ub-AMC, 152 pM enzyme, 30 min pre-incubation, 60 min at 37° C., sigmoidal fit; read-out: USP7 (inhibition of cysteine protease activity). The text has this: The cDNA encoding USP7 was obtained by PCR amplification from placenta mRNA. USP7 cDNA was subcloned by PCR into a baculovirus expression vector (pFastBac-HT; Invitrogen). A cDNA encoding a mutated USP7 was generated by mutagenic PCR. The corresponding protein encodes a cysteine to alanine substitution at residue 223. The sequences were ascertained by sequencing of the entire open reading frame. Bacmids encoding […] were generated following DH10bac transposition. The corresponding bacmids were transfected into insect cells (Sf9). Viruses were recovered from culture supernatant and amplified twice. Insect cells (Sf9 or High Five; Invitrogen) were infected for 72 hours. Total cell lysates were harvested and lyzed in lysis buffer-(Tris HCl 50 mM pH7.6; 0.75% NP40; 500 mM NaCl; 10% glycerol; 1 mM DTT; 10 mM imidazole; Protease Inhibitor Cocktail; AEBSF 20 μg.ml^−1; Aprotinin 10 μg.ml^−1). Proteins were affinity purified on metal affinity resins (Talon Metal affinity resin; BD Biosciences). Bound materials were extensively washed in wash buffer (50 mM Sodium Phosphate pH7.0; 300 mM NaCl; 10 mM imidazole; 0.5% Triton X-100; 10% glycerol) and eluted from the resin in 250 mM imidazole-containing wash buffer. Proteins were dialyzed in dialysis buffer (Tris HCl pH 7.6 20 mM; NaCl 200 mM; DTT 1 mM; EDTA 1 mM; 10% Glycerol). Proteins purifications were analyzed on 4-12% NuPAGE (Invitrogen).
USP7 was diluted in USP buffer (50 mM Tris HCl; 0.5 mM EDTA; 5 mM DTT; 0.01% Triton X-100; Bovine Serum Albumin 0.05 mg.ml^−1 pH7.6). Compounds stocks (100 mM) were stored at −20° C. in DMSO. Compounds were tested at the following final concentrations: 100 μM; 33.3 μM; 11.1 μM; 3.7 μM; 1.23 μM; 412 nM; 137 nM; 45.7 nM; 15.2 nM; 5 nM.
Reactions were performed as duplicates in Black LJL 96 well plates (HE microplates; Molecular Devices; 20 μl final reaction volume). The substrate concentration for USP7 was 400 nM Ub-AMC (Chem. Biol., 2003, 10, p. 837-846) (Boston Biochem). The concentrations of the enzyme (USP7) in specificity assays was 152 pM. The concentrations were determined in order to perform specificity assays under initial velocities at fixed substrate concentration. Compounds were pre-incubated with enzymes for 30 minutes at 25° C. Reactions were initiated by addition of substrate to the plates containing the enzymes (+/−compounds) diluted in assay buffer. Reactions were incubated for 60 minutes at 37° C. Reactions were stopped by adding acetic acid (100 mM final). Readings were performed on a Pherastar Fluorescent Reader (BMG). λ Emission 380 nm; λ Excitation=460 nm. Data (mean values +/−standard deviation) were analyzed as % of control (no compound) and plotted as percentage versus the Log of the compound concentration using GraphPad (Prism). Data were fitted to a sigmoidal model (variable slope).

T1 sequence (Q93009 whole entry): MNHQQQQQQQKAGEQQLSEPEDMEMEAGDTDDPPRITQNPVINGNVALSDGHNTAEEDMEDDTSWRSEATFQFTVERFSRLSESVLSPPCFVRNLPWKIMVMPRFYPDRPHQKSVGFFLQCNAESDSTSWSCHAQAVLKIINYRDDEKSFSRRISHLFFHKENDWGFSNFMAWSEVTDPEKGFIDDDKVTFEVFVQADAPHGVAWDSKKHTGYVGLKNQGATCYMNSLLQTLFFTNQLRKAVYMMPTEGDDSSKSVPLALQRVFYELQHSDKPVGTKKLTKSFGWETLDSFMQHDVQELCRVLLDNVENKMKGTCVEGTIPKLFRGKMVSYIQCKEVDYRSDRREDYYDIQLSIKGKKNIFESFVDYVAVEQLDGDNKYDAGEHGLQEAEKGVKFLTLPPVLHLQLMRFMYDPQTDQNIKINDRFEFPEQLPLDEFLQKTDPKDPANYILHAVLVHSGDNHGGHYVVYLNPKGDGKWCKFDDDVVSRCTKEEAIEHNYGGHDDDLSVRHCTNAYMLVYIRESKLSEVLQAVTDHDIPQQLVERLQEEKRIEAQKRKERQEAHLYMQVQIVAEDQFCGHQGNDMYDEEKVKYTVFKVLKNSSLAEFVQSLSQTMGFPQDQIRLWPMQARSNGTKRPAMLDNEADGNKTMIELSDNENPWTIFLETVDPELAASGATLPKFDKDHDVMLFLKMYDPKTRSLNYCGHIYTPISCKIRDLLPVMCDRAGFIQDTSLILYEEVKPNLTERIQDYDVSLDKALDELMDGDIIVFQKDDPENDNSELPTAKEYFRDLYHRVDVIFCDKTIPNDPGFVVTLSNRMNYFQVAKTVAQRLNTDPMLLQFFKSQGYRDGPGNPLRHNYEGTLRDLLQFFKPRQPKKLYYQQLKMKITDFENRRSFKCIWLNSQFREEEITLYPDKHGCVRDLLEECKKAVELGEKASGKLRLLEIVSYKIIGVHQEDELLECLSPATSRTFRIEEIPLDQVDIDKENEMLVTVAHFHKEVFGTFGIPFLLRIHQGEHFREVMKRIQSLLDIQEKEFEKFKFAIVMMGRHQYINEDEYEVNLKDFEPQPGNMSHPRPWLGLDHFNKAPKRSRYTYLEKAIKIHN

Consider `C=CCON=C1c2ccccc2-c2nn3c(C)nnc3nc21` (mixture of isomers) [5b, 3-Methyl-1,2,3a,4,10-pentaaza-cyclopenta[b]fluoren-9-one O-allyl-oxime], for which the GI50 in assay [1] was found to be 1640 nM. The IC50 in assay [2] turned out to be 3.14 µM. Consider `ON=C1c2ccccc2-c2nn3nnnc3nc21` (mixture of isomers) [compound 7, 1,2,3,3a,4,10-hexaaza-cyclopenta[b]fluoren-9-one oxime], for which the GI50 in assay [1] is 363 nM. Moreover, the IC50 in assay [2] is 0.657 µM. Turning to `CCc1nnc2nc3c(nn12)-c1ccccc1C3=NOCc1ccccc1` (mixture of isomers) [10h, 3-Ethyl-1,2,3a,4,10-pentaaza-cyclopenta[b]fluoren-9-one O-benzyl-oxime], the GI50 in assay [1] is 1910 nM. Besides, the IC50 in assay [2] is 7.28 µM.

Consider `c1ccc(OCCCON=C2c3ccccc3-c3nn4nnnc4nc32)cc1` (mixture of isomers) [8c, 1,2,3,3a,4,10-Hexaaza-cyclopenta[b]fluoren-9-one O-(3-phenoxy-propyl)-oxime], for which the GI50 in assay [1] stood at 265 nM. Also, the IC50 in assay [2] is 1.78 µM. Consider `CCc1nnc2nc3c(nn12)-c1ccccc1C3=NOC` (mixture of isomers) [10b, 3-Ethyl-1,2,3a,4,10-pentaaza-cyclopenta[b]fluoren-9-one O-methyl-oxime], for which the GI50 in assay [1] worked out at 3360 nM. For the same compound, the IC50 in assay [2] worked out at 4.84 µM. For `CCON=C1c2ccccc2-c2nn3c(CC)nnc3nc21` (mixture of isomers) [10d, 3-Ethyl-1,2,3a,4,10-pentaaza-cyclopenta[b]fluoren-9-one O-ethyl-oxime], in assay [1], the GI50 worked out at 3930 nM. Further, the IC50 in assay [2] was 3.11 µM. The matching figures for `C=CCON=C1c2ccccc2-c2nn3c(CC)nnc3nc21` (mixture of isomers) [10f, 3-Ethyl-1,2,3a,4,10-pentaaza-cyclopenta[b]fluoren-9-one O-allyl-oxime]: 2100 nM and 3.25 µM. Take `C=CCON=C1c2ccccc2-c2nn3nnnc3nc21` (mixture of isomers) [compound 6, 1,2,3,3a,4,10-hexaaza-cyclopenta[b]fluoren-9-one O-allyl-oxime]: the GI50 in assay [1] came to 96 nM. In addition, the IC50 in assay [2] amounted to 0.305 µM. For `C=CCON=C1c2ccccc2-c2nn3c(CCCC)nnc3nc21` (mixture of isomers) [5d, 3-Butyl-1,2,3a,4,10-pentaaza-cyclopenta[b]fluoren-9-one O-allyl-oxime] the same measures were 1010 nM and 5.35 µM. `CCCCCCCCCCON=C1c2ccccc2-c2nn3nnnc3nc21` (mixture of isomers) [8a, 1,2,3,3a, 4,10-Hexaaza-cyclopenta[b]fluoren-9-one O-decyl-oxime]: the GI50 in assay [1] was found to be 398 nM. For the compound `CON=C1c2ccccc2-c2nn3c(C)nnc3nc21` (mixture of isomers) [5a, 3-Methyl-1,2,3a,4,10-pentaaza-cyclopenta[b]fluoren-9-one O-methyl-oxime], in assay [1], the GI50 amounted to 1400 nM. In assay [2], the IC50 came to 4 µM.

Turning to `COCCON=C1c2ccccc2-c2nn3nnnc3nc21` (mixture of isomers) [8b, 1,2,3,3a, 4,10-Hexaaza-cyclopenta[b]fluoren-9-one O-(2-methoxy-ethyl)-oxime], the GI50 in assay [1] came to 273 nM. Moreover, the IC50 in assay [2] was 0.47 µM.

One may read the GI50 as the concentration that inhibits growth by half.

These data come from patent publication US20100048575A1, “NOVEL TETRACYCLIC INHIBITORS OF CYSTEINE PROTEASES, THE PHARMACEUTICAL COMPOSITIONS THEREOF AND THEIR THERAPEUTIC APPLICATIONS” (priority 2006, published 2010).
